{
  "source": "patent US9796755B2",
  "about": "“Methods of treating depression and other related diseases” (Northwestern University, priority 2009, dated 2017)",
  "key": {"[1]": {"system": "rats", "experiment": "Porsolt test (Forced Swim Test), systemic dosing", "assay_type": "in vivo, rat", "settings": "for effect on floating times in the Porsolt test: Sprague Dawley rats, 20-60 min post dosing", "protocol": "For the evaluation of the antidepressant actions of GLYX-13, the effect of GLYX-13 in the Porsolt test of depression was examined in rats. Porsolt testing is the most commonly used test for assessment of depression in animal model, Porsolt testing, also known as Forced Swim Test, is based on a behavioral trait that is sensitive to changes in affective state. During this test, the animal is placed in a tank (18 cm diameter×45 cm height) filled to 30 cm with 22-23° C. water. After placing the animal in the tank, the amount of time for which the rat is immobile when it stops struggling is measured. Porsolt test is based on the fact that antidepressants increase the latency to immobility and decrease the time for which the rat is immobile. […] The interpretation of the Porsolt test is that the antidepressants reinstate active coping mechanisms and decrease the passive immobility evoked by stress.\nIn order to evaluate the effectiveness of GLYX-13 as antidepressant, three month old FBNF1 rats were separated into two groups of 9 animals. The first group of rats was intravenously injected with 10 mg/kg GLYX-13 and the second group of animals was intravenously injected with PBS vehicle (1 ml/kg) in a blind manner via chronic subdural femoral vein access ports. Both groups of animals were injected 10 to 15 minutes before the start of testing.\nFor Porsolt testing, animals were given a 15 minute pre-test habituation in the tank to induce learned helplessness on day one. Following this, on the subsequent day, the animals were injected with GLYX-13 or vehicle 10-15 minutes before being placed into the tank for a 5 minute test session. After placing the animals in the tank, the amount of time for which each animal is immobile when it stops struggling (Mean Immobility Time) was measured. Decrease in Mean Immobility Time is a measure of the effectiveness of the antidepressant.\nA second experiment was performed in the same manner as Example 1, except that 2-3 month Sprague-Dawley rats were used, and treated with either intravenous (1, 3, 10, 32 mg/kg), subcutaneous (1, 3, 10, 32, 56, 100 mg/kg) injections of GLYX-13 or saline vehicle (1 mg/ml) 15 (i,v.) or 20 (s.c.) min before the start of the final 5 min test session. Ketamine (10 mg/kg i.p.) was given 60 min befbre the start of testing (Garcia et al., (2008) Prog Neuropsychopharmacol Biol Psychiatry, 32, 140-144).\nTo determine whether the antidepressant effect of GLYX-13 was specific to the sequence of the GLXY-13 peptide, mean time (sec) spent floating in the Porsolt test was determined in groups of 12 three-month old Sprague Dawley rats administered with GLYX-13 (TPPT-NH2 (SEQ ID NO: 13); 3 mg/kg , i.v. tail vein), a scrambled peptide (PTPT-NH3(SEQ ID NO: 19); 3 mg/kg i.v. tail vein), or 0.9% saline vehicle (1 ml/kg, i.v. tail vein). Administration occurred 60 min before the 5 min testing session. Animals received a 15 min training swim session one day before dosing.\nTo evaluate whether the anti-depressive and anxiolytic effects of GLYX-13 would persist beyond a few hours, rats were tested in the Porsolt test and the Open Field test, described above. Groups of 10-11 three-month old Sprague-Dawley rats were pretreated with GLYX-13 (3 mg/kg i.v.), ketamine (10 mg/kg i.v.) or saline vehicle injection (1 mg/ml i.v. tail vein) 96 hrs before the start of testing. Animals received a single 15 min. training swim session one day before dosing. Animals were tested 96 hrs post dosing in the Porsolt test without any testing during the intervening period. Open field testing was conducted without pre-habituation 1 day after Porsolt testing (i.e. 120 hrs post dosing). Mean(±SEM) time (sec.) spent floating in the Porsolt test, time spent in the center compartment (sec.), and line crosses in the open field test were determined.\nThe Porsolt test adapted for use in rats was performed as above. […]"}, "[2]": {"experiment": "CSF concentration of GLYX-13 after IV administration (LC-MS/MS)", "assay_type": "in vivo", "settings": "male, Sprague Dawley, rat, cerebrospinal fluid (CSF), rats, read-out: Cmax within the CSF compartment", "protocol": "Male Sprague Dawley rats (250-300 g) received intravenous injections of GLYX-13 (3-10 mg/kg), briefly anesthetized with isoflurane, and cerebrospinal fluid (CSF) samples drawn and stored at −70° C. until analysis.\nCSF samples were precipitated with internal standard Pro-Thr-Pro-Ser-NH2 (SEQ ID NO: 20) in 400 μl of acetonitrile. Supernatant extract was separated by HPLC (LC-20AD, Shimadzu, Japan) using a Synergi 4μ Hydro-RP 8A column (Phenomenex, USA) with mobile phase of 100 mM ammonium formate with 0.1% formic acid for 0 1 minute followed by acetonitrile with 0.1% formic acid and samples were analyzed by LC-MS/MS (API4000, Applied Biosystems, USA) in ESI positive ion mode and the GLYX-13 (199.1 and 216.1) and IS (202.3) daughter ions quantified by multiple reaction monitoring. The lower limit of quantitation for the assay was 26.3 nM GLYX-13."}, "[3]": {"system": "glycogen synthase kinase 3β (GSK-3β)", "experiment": "Total and phosphoserine-9 GSK-3β by ELISA in medial prefrontal cortex", "assay_type": "in vivo, rat", "settings": "24 hrs after GLYX-13 3 mg/kg IV or ketamine 10 mg/kg IV", "excerpt": "Total and Phosphoserine-9 glycogen synthase kinase 3β (GSK-3β) were quantified by ELISA according to the manufacturer's instructions (catalog numbers ADI-900-144 and ADI-900-123A, Assay Designs, USA). Total and phosphoserine-845 GluR1 were quantified by Western blot."}},
  "note": "Where two headings read alike, the source gives them in different places. Where a SMILES comes first, the peptide text is derived from it.",
  "data": [
    {"molecule": "C[C@@H](O)[C@H](N)C(=O)N1CCC[C@H]1C(=O)N1CCC[C@H]1C(=O)N[C@H](C(N)=O)[C@@H](C)O", "note": "[GLYX-13, L-threonyl-L-prolyl-L-prolyl-L-threonine amide] (H-TPPT-NH2)", "values": [
      {"measurement": "activity in the Porsolt test", "setting": "[1]; 10 mg/kg SC", "value": "active"},
      {"measurement": "effect on floating times in the Porsolt test", "setting": "[1]; 3-10 mg/kg IV", "value": "significantly (P<0.05) reduced floating times"},
      {"measurement": "effect on floating times in the Porsolt test", "setting": "[1]; 10-30 mg/kg SC", "value": "significantly (P<0.05) reduced floating times"},
      {"measurement": "onset of action", "setting": "[1]; single dose, rats", "value": "within minutes"},
      {"measurement": "Cmax", "setting": "[2]; 3 mg/kg IV", "value": 0.06, "unit": "µM"},
      {"measurement": "Cmax", "setting": "[2]; 10 mg/kg IV", "value": 0.2, "unit": "µM"},
      {"measurement": "phosphoserine-9 GSK-3β/total GSK-3β ratio", "setting": "[3]", "value": "reduced"}
    ]}
  ]
}
